Experimental data published in ChEMBL document CHEMBL1138605, “Identification of 3-substituted N-benzhydryl-nortropane analogs as nociceptin receptor ligands for the management of cough and anxiety” (Bioorg Med Chem Lett, 2009).
The source made the active and inactive calls. The calls are words filed in the database; no cut-off is given here.

Assays:
[1] = biological target: T1, Mu-type opioid receptor (Homo sapiens, UniProt P35372); test: Agonist activity at human mu opioid assessed as stimulation of GTPgammaS binding; type: functional
[2] = biological target: T2, Nociceptin receptor (Homo sapiens, UniProt P41146); test: Agonist activity at human cloned ORL1 receptor assessed as stimulation of GTPgammaS binding at 10 uM; type: functional
[3] = biological target: T1, Mu-type opioid receptor; test: Displacement of [3H]diprenorphine from human mu opioid receptor expressed in CHO cells; type: cell-based
[4] = biological target: T3, Nuclear receptor subfamily 1 group I member 2 (Homo sapiens, UniProt O75469); test: Activity at PXR in human hepatocytes assessed as induction of CYP3A4 activity at 1 uM relative rifampicin; type: cell-based, Hepatocyte
T3 sequence (O75469 whole entry): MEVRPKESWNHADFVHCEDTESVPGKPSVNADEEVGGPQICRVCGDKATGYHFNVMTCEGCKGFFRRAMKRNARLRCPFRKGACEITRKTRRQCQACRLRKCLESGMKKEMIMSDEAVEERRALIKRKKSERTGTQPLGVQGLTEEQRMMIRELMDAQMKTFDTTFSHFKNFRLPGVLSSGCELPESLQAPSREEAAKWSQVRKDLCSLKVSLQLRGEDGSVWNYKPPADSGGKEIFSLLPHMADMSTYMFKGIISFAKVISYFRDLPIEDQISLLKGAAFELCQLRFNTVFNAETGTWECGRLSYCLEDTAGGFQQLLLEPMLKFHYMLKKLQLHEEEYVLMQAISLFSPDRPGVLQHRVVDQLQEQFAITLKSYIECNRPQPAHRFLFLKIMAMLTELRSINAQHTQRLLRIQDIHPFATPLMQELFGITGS

[5] = biological target: T1, Mu-type opioid receptor; test: Agonist activity at human mu opioid receptor assessed as stimulation of GTPgammaS binding at 10 uM; type: functional
[6] = biological target: T2, Nociceptin receptor; test: Displacement of [125I][Tyr14]nociceptin from human cloned ORL1 receptor expressed in CHO cells; type: cell-based
[7] = biological target: T2, Nociceptin receptor; test: Agonist activity at human cloned ORL1 receptor assessed as stimulation of GTPgammaS binding; type: functional
[8] = species on record: Homo sapiens; test: Selectivity for human cloned ORL1 receptor over human mu opioid receptor
[9] = species on record: Rattus norvegicus; test: Anxiolytic like activity in rat assessed as conditioned lick suppression after 2 hrs; type: functional
[10] = tested on: Cavia porcellus; test: Antitussive activity in guinea pig GPPV model assessed as reduction of capsaicin-induced coughing at 0.3 mg/kg, po after 2 hrs administered 15 mins before capsaicin challenge; type: functional
[11] = tested on: Cavia porcellus; test: Anxiolytic like activity in guinea pig assessed as reduction in number of vocalization produced due to separation measured at 3 mg/kg, po after 2 hrs; type: functional, organism-based; design: dose 3 mg/kg
[12] = biological target: Kappa-type opioid receptor (Homo sapiens, UniProt P41145); test: Displacement of [3H]diprenorphine from human kappa opioid receptor expressed in CHO cells; type: cell-based
[13] = biological target: Delta-type opioid receptor (Homo sapiens, UniProt P41143); test: Displacement of [3H]diprenorphine from human delta opioid receptor expressed in CHO cells; type: cell-based
[14] = Ratio of ED50 for antitussive activity in guinea pig GPPV model to ED50 for anxiolytic like activity in rat; type: functional
[15] = species on record: Cavia porcellus; test: Anxiolytic like activity in guinea pig assessed as reduction in number of vocalization produced due to separation measured after 2 hrs; type: functional
[16] = tested on: Cavia porcellus; test: Antitussive activity in po dosed guinea pig GPPV model assessed as reduction of capsaicin-induced coughing after 2 hrs administered 15 mins before capsaicin challenge; type: functional
[17] = biological target: T1, Mu-type opioid receptor; test: Agonist activity at human mu opioid receptor assessed as stimulation of GTPgammaS binding at 5.5 uM; type: functional
[18] = biological target: T2, Nociceptin receptor; test: Agonist activity at human cloned ORL1 receptor assessed as stimulation of GTPgammaS binding at 5.5 uM; type: functional

T1 sequence (P35372 whole entry): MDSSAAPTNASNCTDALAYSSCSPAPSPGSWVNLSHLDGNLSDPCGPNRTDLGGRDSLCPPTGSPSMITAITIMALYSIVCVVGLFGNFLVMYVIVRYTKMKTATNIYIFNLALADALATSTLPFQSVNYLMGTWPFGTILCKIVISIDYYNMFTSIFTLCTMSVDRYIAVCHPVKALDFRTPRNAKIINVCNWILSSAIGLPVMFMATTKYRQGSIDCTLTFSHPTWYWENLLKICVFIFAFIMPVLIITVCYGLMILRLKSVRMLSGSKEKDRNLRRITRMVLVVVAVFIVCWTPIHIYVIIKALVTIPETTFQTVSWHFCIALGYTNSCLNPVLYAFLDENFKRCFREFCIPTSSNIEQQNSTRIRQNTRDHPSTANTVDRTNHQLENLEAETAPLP
T2 sequence (P41146 whole entry): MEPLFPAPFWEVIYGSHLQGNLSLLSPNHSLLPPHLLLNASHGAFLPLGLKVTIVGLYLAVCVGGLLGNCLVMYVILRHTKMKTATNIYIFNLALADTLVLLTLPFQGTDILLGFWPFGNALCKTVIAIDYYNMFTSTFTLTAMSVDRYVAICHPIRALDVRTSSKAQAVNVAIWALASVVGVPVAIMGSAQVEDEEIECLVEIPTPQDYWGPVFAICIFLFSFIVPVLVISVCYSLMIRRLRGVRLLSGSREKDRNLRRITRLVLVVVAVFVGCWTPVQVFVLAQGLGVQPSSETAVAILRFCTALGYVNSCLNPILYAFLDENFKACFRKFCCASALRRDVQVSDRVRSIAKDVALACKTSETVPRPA
Chain of Delta-type opioid receptor (P41143 whole entry): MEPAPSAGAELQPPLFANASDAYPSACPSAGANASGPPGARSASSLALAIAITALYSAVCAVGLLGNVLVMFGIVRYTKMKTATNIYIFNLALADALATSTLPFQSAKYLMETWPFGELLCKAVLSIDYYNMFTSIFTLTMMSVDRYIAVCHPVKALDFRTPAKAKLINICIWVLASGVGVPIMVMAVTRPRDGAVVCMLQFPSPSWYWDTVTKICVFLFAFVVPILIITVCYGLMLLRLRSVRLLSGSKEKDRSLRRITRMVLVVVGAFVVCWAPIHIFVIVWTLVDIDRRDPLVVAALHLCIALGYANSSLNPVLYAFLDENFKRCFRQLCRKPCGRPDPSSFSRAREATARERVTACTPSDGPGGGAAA
Chain of Kappa-type opioid receptor (P41145 whole entry): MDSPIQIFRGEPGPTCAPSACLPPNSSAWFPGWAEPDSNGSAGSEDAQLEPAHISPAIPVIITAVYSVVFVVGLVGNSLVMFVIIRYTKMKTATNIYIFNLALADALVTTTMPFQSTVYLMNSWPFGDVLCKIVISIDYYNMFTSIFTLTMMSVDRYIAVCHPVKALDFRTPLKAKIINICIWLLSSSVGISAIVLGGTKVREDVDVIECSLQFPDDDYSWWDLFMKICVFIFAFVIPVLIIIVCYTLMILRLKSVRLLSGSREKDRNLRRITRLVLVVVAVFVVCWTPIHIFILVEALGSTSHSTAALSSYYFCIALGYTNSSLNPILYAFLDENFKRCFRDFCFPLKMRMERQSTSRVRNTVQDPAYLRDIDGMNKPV

| Compound | Ki [3] [nM] | Ratio [4] | Ki [6] [nM] | fold change (FC) [8] | also measured |
| --- | --- | --- | --- | --- | --- |
| CC(=O)N[C@]1(c2ccccn2)C[C@H]2CC[C@@H](C1)N2C(c1ccccc1Cl)c1ccccc1Cl | 312 | 1.97 | 6 | 52 | EC50 [1]: 1930 nM; Activity [2]: 84%; Activity [5]: 68%; EC50 [7]: 19 nM |
| NC(=O)C1(C2CCCCN2)C[C@H]2CC[C@H](C1)N2C(c1ccccc1Cl)c1ccccc1Cl (relative stereo) | 474 | – | 17 | – | – |
| NC(=O)[C@]1(c2ccc(Cl)cn2)C[C@H]2CC[C@@H](C1)N2C(c1ccccc1Cl)c1ccccc1Cl | 143 | 0.27 | 15 | – | EC50 [1]: 368 nM; ED50 [9]: 2.4 mg/kg; Activity [2]: 145%; Activity [5]: 97%; EC50 [7]: 44 nM |
| N[C@]1(Cc2ccc(Cl)cc2)C[C@H]2CC[C@@H](C1)N2C(c1ccccc1Cl)c1ccccc1Cl | 447 | – | 36 | – | – |
| CN(C)[C@]1(c2ccccn2)C[C@H]2CC[C@@H](C1)N2C(c1ccccc1Cl)c1ccccc1Cl | 840 | – | 42 | – | – |
| COC(=O)N[C@]1(c2ccc(Cl)cn2)C[C@H]2CC[C@@H](C1)N2C(c1ccccc1Cl)c1ccccc1Cl | 961 | 1.06 | 12 | 74 | – |
| N[C@]1(c2ccccn2)C[C@H]2CC[C@@H](C1)N2C(c1ccccc1Cl)c1ccccc1Cl | 343 | 0.47 | 10 | 32 | Activity [10]: inactive |
| N[C@]1(c2ccc(F)cn2)C[C@H]2CC[C@@H](C1)N2C(c1ccccc1Cl)c1ccccc1Cl | 209 | 0.23 | 7 | 32 | Activity [10]: inactive |
| NC(=O)C[C@]1(Cc2ccc(F)cc2)C[C@H]2CC[C@@H](C1)N2C(c1ccccc1Cl)c1ccccc1Cl | 190 | 0.35 | 3 | 63 | Activity [11]: inactive; Activity [10]: 38% |
| NC(=O)[C@]1(c2cc(C(=O)O)c(F)cn2)C[C@H]2CC[C@@H](C1)N2C(c1ccccc1Cl)c1ccccc1Cl | – | – | > 1000 | – | – |
| NC(=O)c1ccc([C@@]2(C(N)=O)C[C@H]3CC[C@@H](C2)N3C(c2ccccc2Cl)c2ccccc2Cl)nc1 | 1320 | – | 401 | 4 | – |
| NC(=O)[C@]1(c2ccc(F)cn2)C[C@H]2CC[C@@H](C1)N2C(c1ccccc1Cl)c1ccccc1Cl | 123 | 0.29 | 7 | 37 | EC50 [1]: 733 nM; Ki [12]: 1610 nM; ED50 [9]: 1.7 mg/kg; Activity [2]: 95%; Ki [13]: 3350 nM; Ratio ED50 [14]: 15; EC50 [7]: 20 nM; ED50 [15]: 0.3 mg/kg; ED50 [16]: 0.02 mg/kg |
| NC(=O)[C@]1(c2cc(F)c(F)cn2)C[C@H]2CC[C@@H](C1)N2C(c1ccccc1Cl)c1ccccc1Cl | 74 | 0.18 | 9 | – | – |
| COC(=O)NC1(c2ccc(F)cn2)C[C@H]2CC[C@H](C1)N2C(c1ccccc1Cl)c1ccccc1Cl (relative stereo) | 887 | 1.38 | 12 | 74 | – |
| NC(=O)[C@]1(c2ccc(Br)nc2)C[C@H]2CC[C@@H](C1)N2C(c1ccccc1Cl)c1ccccc1Cl | 46 | – | 13 | – | – |
| CC(=O)NC[C@]1(c2ccccc2)C[C@H]2CC[C@@H](C1)N2C(c1ccccc1Cl)c1ccccc1Cl | – | 0.94 | 20 | – | EC50 [7]: 269 nM; ED50 [16]: 0.19 mg/kg |
| NC(=O)[C@]1(c2ccc(Br)cn2)C[C@H]2CC[C@@H](C1)N2C(c1ccccc1Cl)c1ccccc1Cl | 153 | 0.09 | 29 | 4 | EC50 [1]: 421 nM; Activity [2]: 75%; Activity [5]: 89%; EC50 [7]: 63 nM |
| NC(=O)C[C@]1(Cc2ccc(O)cc2)C[C@H]2CC[C@@H](C1)N2C(c1ccccc1Cl)c1ccccc1Cl | – | 0.51 | 17 | – | – |
| NC(=O)[C@]1(c2cccnc2)C[C@H]2CC[C@@H](C1)N2C(c1ccccc1Cl)c1ccccc1Cl | 71 | 0.4 | 3 | – | – |
| NC(=O)[C@]1(c2ncc(F)cc2F)C[C@H]2CC[C@@H](C1)N2C(c1ccccc1Cl)c1ccccc1Cl | – | – | 47 | – | – |

| Compound | Ki [3] [nM] | Ratio [4] | Ki [6] [nM] | fold change (FC) [8] | also measured |
| --- | --- | --- | --- | --- | --- |
| NC(=O)[C@]1(c2ccc(C(F)(F)F)cn2)C[C@H]2CC[C@@H](C1)N2C(c1ccccc1Cl)c1ccccc1Cl | – | – | 122 | 4 | – |
| NC(=O)[C@]1(c2nc(F)ccc2F)C[C@H]2CC[C@@H](C1)N2C(c1ccccc1Cl)c1ccccc1Cl | – | 0.83 | 16 | – | – |
| NC(=O)[C@]1(c2ccncc2)C[C@H]2CC[C@@H](C1)N2C(c1ccccc1Cl)c1ccccc1Cl | 265 | – | 79 | 20 | – |
| COc1ccc2c3c1O[C@H]1[C@@H](O)C=C[C@H]4[C@@H](C2)N(C)CC[C@@]341 [CODEINE] | – | – | – | – | ED50 [16]: 6.7 mg/kg |
| Cc1ccc([C@@]2(C(N)=O)C[C@H]3CC[C@@H](C2)N3C(c2ccccc2Cl)c2ccccc2Cl)nc1 | 26 | 0.4 | 6 | – | – |
| CC(=O)N[C@]1(c2ccc(F)cn2)C[C@H]2CC[C@@H](C1)N2C(c1ccccc1Cl)c1ccccc1Cl | 601 | 1.47 | 10 | 60 | – |
| COC(=O)N[C@]1(c2ccccn2)C[C@H]2CC[C@@H](C1)N2C(c1ccccc1Cl)c1ccccc1Cl | 741 | 0.98 | 10 | 74 | EC50 [1]: 3780 nM; Activity [2]: 92%; Activity [5]: 52%; EC50 [7]: 87 nM |
| NC(=O)[C@]1(c2ccccn2)C[C@H]2CC[C@@H](C1)N2C(c1ccccc1Cl)c1ccccc1Cl | 52 | 0.79 | 4 | – | – |
| COC(=O)N[C@]1(Cc2ccc(Cl)cc2)C[C@H]2CC[C@@H](C1)N2C(c1ccccc1Cl)c1ccccc1Cl | – | 1.1 | 56 | – | EC50 [1]: 1560 nM; Activity [17]: 59%; Activity [18]: 85%; EC50 [7]: 14 nM |
| NC(=O)[C@]1(c2cccc(F)n2)C[C@H]2CC[C@@H](C1)N2C(c1ccccc1Cl)c1ccccc1Cl | 348 | 1.06 | 10 | 35 | – |
| NC(=O)[C@]1(c2ccc(N)cn2)C[C@H]2CC[C@@H](C1)N2C(c1ccccc1Cl)c1ccccc1Cl | 205 | – | 31 | 4 | – |
| NC(=O)[C@]1(c2cc(F)cc(F)n2)C[C@H]2CC[C@@H](C1)N2C(c1ccccc1Cl)c1ccccc1Cl | 468 | 0.55 | 15 | – | – |
| COC(=O)c1ccc([C@@]2(C(N)=O)C[C@H]3CC[C@@H](C2)N3C(c2ccccc2Cl)c2ccccc2Cl)nc1 | – | – | > 1000 | 4 | – |
| NC(=O)[C@@]1(Cc2ccc(F)cc2)C[C@H]2CC[C@@H](C1)N2C(c1ccccc1Cl)c1ccccc1Cl | 85 | 0.48 | 3 | – | EC50 [1]: 540 nM; Activity [2]: 108%; Activity [5]: 107%; EC50 [7]: 11 nM |
| NC(=O)[C@]1(c2cc(CF)c(F)cn2)C[C@H]2CC[C@@H](C1)N2C(c1ccccc1Cl)c1ccccc1Cl | 367 | 0.77 | 19 | – | – |
| NC(=O)[C@]1(c2ccc(O)cn2)C[C@H]2CC[C@@H](C1)N2C(c1ccccc1Cl)c1ccccc1Cl | – | – | 72 | 4 | – |
| COc1ccc([C@@]2(C(N)=O)C[C@H]3CC[C@@H](C2)N3C(c2ccccc2Cl)c2ccccc2Cl)nc1 | 133 | 0.19 | 22 | – | – |
| NC(=O)[C@]1(Cc2ccc(Cl)cc2)C[C@H]2CC[C@@H](C1)N2C(c1ccccc1Cl)c1ccccc1Cl | 284 | 0.67 | 10 | – | – |
| N#Cc1ccc([C@@]2(C(N)=O)C[C@H]3CC[C@@H](C2)N3C(c2ccccc2Cl)c2ccccc2Cl)nc1 | 481 | – | 75 | 4 | – |
